A word on the IC50: it is the concentration that inhibits the measured activity by half.

Converted amounts (≈) assume the structure as drawn.

Data on eight molecules can be found in ChEMBL document CHEMBL3045477, “Dysfunctionality of the xylem in Olea europaea L. Plants associated with the infection process by Verticillium dahliae Kleb. Role of phenolic compounds in plant defense mechanism” (J Agric Food Chem, 2007).

In the experiment the test system is Verticillium dahliae. In words: Antifungal activity against Verticillium dahliae assessed as inhibition of mycelial radial growth measured after 350 hr. In kind it is functional, organism-based.
In the case of `Oc1cc(O)c2c(c1)OC(c1ccc(O)c(O)c1)C(O)C2` (stereo not drawn) [CATECHIN], the IC50 was found to be 2100 mg/L (≈ 7230 µM). As to `O=C(O)/C=C/c1ccc(O)cc1` [COUMARIC ACID], the IC50 was found to be 1470 mg/L (≈ 8950 µM). As to `O=c1cc(-c2ccc(O)c(O)c2)oc2cc(O[C@@H]3O[C@H](CO)[C@@H](O)[C@H](O)[C@H]3O)cc(O)c12` [GALUTEOLIN], the IC50 stood at 260 mg/L (≈ 580 µM). Regarding `O=c1cc(-c2ccc(O)c(O)c2)oc2cc(O)cc(O)c12` [LUTEOLIN], the IC50 was 7 mg/L (≈ 24.5 µM). With `C/C=C1/[C@H](O[C@@H]2O[C@H](CO)[C@@H](O)[C@H](O)[C@H]2O)OC=C(C(=O)OC)[C@H]1CC(=O)OCCc1ccc(O)c(O)c1` [OLEUROPEIN], the 50% inhibitory concentration (IC50) stood at 170 mg/L (≈ 315 µM).

In the case of `O=c1c(O)c(-c2ccc(O)c(O)c2)oc2cc(O)cc(O)c12` [QUERCETIN], the IC50 came out at 6 mg/L (≈ 19.9 µM). Consider `C[C@@H]1O[C@@H](OC[C@H]2O[C@@H](Oc3c(-c4ccc(O)c(O)c4)oc4cc(O)cc(O)c4c3=O)[C@H](O)[C@@H](O)[C@@H]2O)[C@H](O)[C@H](O)[C@H]1O` [RUTIN], for which the 50% inhibitory concentration (IC50) came to 80 mg/L (≈ 131 µM). Consider `OCCc1ccc(O)cc1` [TYROSOL], for which the IC50 turned out to be 660 mg/L (≈ 4780 µM).
